The subject of experiment [1] is soybean plants. Description: Accelerated aging test of seeds harvested from treated soybean plants. Type of experiment: in vivo. How it is done:
Another germination test, the accelerated aging test (AA), estimates the carryover potential of a seed lot in warehouse storage. The seeds are exposed to high temperatures and high relative humidity for short periods of time that cause seed deterioration. Seeds are suspended over water in a chamber for a period of time, for example 72 hours (wheat and soybeans) or 96 hours (corn), then tested in a standard warm germination test. This test only is usually used on seed whose longevity was in question.
(§1) In the method of the present invention, seeds harvested from plants treated with a foliar insecticide, or seeds harvested from plants whose pre-planted seeds were treated with a seed treatment insecticide, or seeds harvested from plants that underwent both treatments, both as the pre-planted seed (seed treatment) and as the post emergent plant (foliar insecticide treatment) were tested in warm germination and accelerated aging tests to determine the health and quality of the harvested seeds. In accordance with the germination tests, it was discovered that seed-producing plants resulting from the growers' application of insecticides at the seed stage, the foliar stage, and both, not only were healthier plants, but they also produced healthier seeds.
(§2) Germination studies were conducted on soybean plants comparing plants treated with a combination of fungicides with plants (1) wherein only insecticidal seed treatment was applied; (2) wherein insecticidal seed treatment was applied followed by foliar insecticidal treatment on the resulting plant; and (3) wherein only foliar insecticide was applied to a plant grown from untreated seed.

Experiment [2] deals with soybean plants. As to the kind of experiment: Warm germination test of seeds harvested from treated soybean plants. Type of experiment: in vivo.
Source text: A preferred test of seed germination is a warm germination test because it is used for labeling purposes. Germination is defined as: “the emergence and development from the seed embryo of those essential structures which are indicative of the ability to produce a normal plant under favorable conditions.” The warm germination test reflects the stand producing potential of a seed lot under ideal planting conditions. In a typical warm germination test, 400 seeds from each seed lot are placed under moist conditions on blotters, rolled towels, or sand and maintained at 77° F. for about seven days. At the end of this period the seedlings are categorized as normal, abnormal, or diseased, and dead or hard seeds. The percentage germination is calculated from the number of normal seedlings from the total number of seeds evaluated.
as §1, §2

Where [3] appears, read: foliar insecticide only (2 applications), untreated seed.
The mark [4] stands for this setting: insecticidal seed treatment only, 30 g.
[5] abbreviates: insecticidal seed treatment only, 50 g.

Consider `CC1(C)[C@H](C(=O)O[C@H](C#N)c2cccc(Oc3ccccc3)c2)[C@@H]1/C=C(\Cl)C(F)(F)F` (racemic) [lambda cyhalothrin], for which the “Accelerated Aging (+/−Std. Error)” value is reported as 89.3 (1.06) in the experiment with soybean plants [1] (setting [3]), 89.7 (1.23) in the experiment with soybean plants [1] (foliar insecticide only (8/8)) and 86.5 (1.23) in the experiment on soybean plants [1] (foliar insecticide only (8/12)). The “Warm Germination (+/−Std. Error)” value in the experiment on soybean plants [2] (setting [3]) is listed as 92.5 (0.70); with soybean plants [2] (foliar insecticide only (8/8)) it was 92.9 (0.81); with soybean plants [2] (foliar insecticide only (8/12)), 91.1 (0.81).

As to `CN1COCN(Cc2cnc(Cl)s2)/C1=N\[N+](=O)[O-]` [Thiamethoxam, thiamethoxam], the “Accelerated Aging (+/−Std. Error)” value in the experiment on soybean plants [1] (setting [4]) is given as 86.7 (0.95); in the experiment with soybean plants [1] (setting [5]) it was 90.4 (0.98). Further, the “Warm Germination (+/−Std. Error)” value is listed as 91.4 (0.63) with soybean plants [2] (setting [4]) and 91.6 (0.65) in the experiment with soybean plants [2] (setting [5]).

The values above are taken from patent US20090298887A1, “METHOD FOR IMPROVING HARVESTED SEED QUALITY” (Syngenta Corp Protection, Inc., priority 2004, published 2009).
